Experimental data taken from patent US20230107216A1, “PANTETHEINE DERIVATIVES AND USES THEREOF” (Comet Therapeutics, Inc., priority 2018, published 2023).
Like-named read-outs stand apart in the source and are kept apart here.

How the values were obtained:
[1] = system: monocyte-derived M1 macrophages; assay: M1 differentiation assay (macrophage TNFα, IL6, IL10 ELISA, FACS); format: cell-based, human; settings: for activation at 10 µM: read-out: % Increase in IL-10 Secretion
Summary of the method: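 CD14+ human blood monocytes (100,000) differentiated 6 days with 10 ng/ml GM-CSF plus compound at 10 or 50 μM, refreshed days 2 and 4. Matured 24 h with GM-CSF, IFNγ, LPS plus compound. Supernatant TNFα, IL6, IL10 by ELISA; FACS M1 phenotype CD86+CD68+CD163−.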

[2] = system: Very long-chain acyl-CoA dehydrogenase (VLCAD) primary fibroblasts GM17475; assay: Total NAD+ + NADH and NAD+ (NAD/NADH-Glo), VLCAD fibroblasts GM17475; format: cell-based; settings: Homo sapiens, Fibroblast, VLCAD GM17475 P10, assay condition A, 24h, read-out: Increase in Total NAD+ + NADH
Protocol: Primary adherent fibroblasts were cultured in minimum essential medium (MEM) (Gibco, 25030081) supplemented with 2 mM L-Glutamine (Gibco, 25030081), 15% fetal bovine serum (FBS) (Gibco, 26400044) and 1% penicillin/streptomycin (Gibco, 5140122) at 37° C. and 5% CO2. Cells were collected for either passaging or experiment at ˜70-80% confluence. Cells were obtained by trypsinization and seeded in cell culture microplates either white plate (Thermo Fisher Scientific, 152028) for luminescent measurement or black plate (Thermo Fisher Scientific, 165305) for fluorescent based read out for different assays listed below. Cells were obtained by trypsinization and […] were seeded and allowed to adhere for 16-18 hours to have confluency around 70-80% in the cell well with culture media. After 24 hours prior to measurements (37° C., 5% CO2) media was changed to Dulbecco's Modified Eagle Medium (DMEM, Agilent Seahorse cat #103575-100) with the appropriate supplements as stated below.
Primary fibroblasts assayed were Propionic Acidemia (PA) (GM03590 Coriell Institute for Medical Research, Tsi 6337 Trans-Hit Bio), Methylmalonic Acidemia (MMA) (Tsi 5224 Trans-Hit Bio), Subnormal activation of pyruvate dehydrogenase complex (PDH) (GM01503 Coriell Institute for Medical Research), Very long-chain acyl-CoA dehydrogenase (VLCAD) (GM17475), Leigh Syndrome (LS) (GM03672, GM13411 Coriell Institute for Medical Research), Pyruvate Carboxylase Deficiency (PC) (GM00444 Coriell Institute for Medical Research). 10 μM of Compounds were added for 2 hours in PA, MMA lines and for 24h for the other fibroblast lines.
Assay was performed according to manufacturer instructions (NAD/NADH-Glo Assay Promega, G9072). The NAD/NADH-Glo Assay is a bioluminescent assay for detecting total oxidized and reduced nicotinamide adenine dinucleotides (NAD+ and NADH, respectively) from which ratio of NAD/NADH can be calculated. Briefly, for every assay a 12-point standard curve was prepared ranging from 400 nM to 0.625 nM. Media was removed and replaced with 50 μl of PBS for both assays.
For individual NAD+ and NADH measurement, 50 μl of 1% DTAB (Sigma Cat #D5047) (cell lysis reagent) in 0.2N NaOH was added to the plate and a total 100 μl of lysate was split into two plates with 50 μl each. 25 μl of 0.4N HCl were added to the NAD+ plate and both NAD+ and NADH plate were heated at 60° C. for 15 minutes. The acid and heat treatment destroyed NADH allowing individual NAD+ measurement while heating in basic conditions destroys NAD+ allowed individual NADH measurements. The plates were allowed to come to room temperature for 10 minutes and Trizma base (Sigma, T1699) was added to the NAD+ plate to neutralize the acid and HCl Trizma hydrochloride (Sigma, T2694) was added to the NADH plate. The NADNADH glo reagent was prepared by adding: 625 μl of NAD cycling substrate, 125 μl of reductase, 125 μl of reductase substrate, 125 μl NAD cycling enzyme to total of the 25 ml of NAD GLO reagent. 1:1 ratio of total volume of reagent was added to the individual NAD+, NADH measurement (total 100 μl) and 50 μl for total NAD/NAH measurement. Luminescence was read between 30-60 minutes within the linear range.
A total dead cell count was performed as described in Example 817 and only alive cells were used for analysis.

[3] = system: Bronchial epithelial cells (BE3C system); assay: BioMAP BE3C system (IL-1β, TNFα, IFNγ); format: cell-based, human; settings: 10 uM, procedure of Example 831
[4] = system: Propionic Acidemia (PA) primary fibroblasts GM00371; assay: Mitochondrial respiration, XFe96 Extracellular Flux Analyzer (OCR/ECAR), PA fibroblasts GM00371; format: cell-based; settings: Homo sapiens, Fibroblast, read-out: Increase in Maximal Respiratory Capacity AUC
[5] = Homo sapiens, Macrophage, 10 uM
[6] = Homo sapiens, Macrophage, 10 uM, read-out: % decrease in Macrophage IL-6 Secretion
[7] = Homo sapiens, Macrophage, 10 uM, read-out: % decrease in Macrophage TNFα Secretion
[8] = assay condition D (1 mM glucose, 10% FBS)
[9] = assay condition C (10 mM glucose, 10% FBS)

SMILES | activation at 10 µM [1, 5] [%] | inhibition at 10 µM [1, 7] [%] | activation at 10 µM [2] [%] | further results
CC[C@@H](O)CC(=O)SCCNC(=O)CCNC(=O)[C@H](O)C(C)(C)CO [Compound 1245, (2R)-2,4-dihydroxy-N-{2-[(2-{[(3R)-3-hydroxypentanoyl]sulfanyl}ethyl)carbamoyl]ethyl}-3,3-dimethylbutanamide] | ≥ 30 | ≥ 30 | ≥ 10 | inhibition at 10 µM [1, 6]: ≥ 30%
C[C@@H](O)CC(=O)CC(=O)SCCNC(=O)CCNC(=O)[C@H](O)C(C)(C)CO [Compound 42, (2R)-2,4-dihydroxy-N-[2-[(2-[[(5R)-5-hydroxy-3-oxohexanoyl]sulfanyl]ethyl)carbamoyl]ethyl]-3,3-dimethylbutanamide] | – | – | ≥ 10 | % decrease in Keratin 8/18 [3]: ≥1.0%; % decrease in MMP-9 [3]: ≥10%; % decrease in tPA [3]: ≥10%
CC(=O)SCCNC(=O)CCNC(=O)[C@H](O)C(C)(C)COC(=O)CCC(=O)O [Compound 1242, (R)-12-hydroxy-13,13-dimethyl-2,7,11,16-tetraoxo-15-oxa-3-thia-6,10-diazanonadecan-19-oic acid] | ≥ 30 | ≥ 30 | ≥ 10 | % decrease in Live Macrophage Cells ([1]; 10 uM): ≥20%; inhibition at 10 µM [1, 6]: ≥ 30%
COC(=O)CC(C(C)=O)C(=O)SCCNC(=O)CCNC(=O)[C@H](O)C(C)(C)CO (stereo partly shown) [Compound 410] | – | – | ≥ 10 | activation at 50 µM [4, 8]: ≥ 10%
CC(O)C(C(=O)SCCNC(=O)CCNC(=O)[C@H](O)C(C)(C)CO)C(C)O (stereo partly drawn) [Compound 1285, (2R)-2,4-dihydroxy-N-[2-[(2-[[3-hydroxy-2-(1-hydroxyethyl)butanoyl]sulfanyl]ethyl)carbamoyl]ethyl]-3,3-dimethylbutanamide] | – | – | ≥ 10 | activation at 50 µM [4, 9]: ≥ 10%
C[C@@H](O)CC(=O)SCCNC(=O)CCNC(=O)[C@H](O)C(C)(C)CO [Compound 38, S-2-{3-[(R)-2,4-dihydroxy-3,3-dimethylbutyrylamino]propionylamino} ethyl (R)-3-hydroxybutanethioate] | ≥ 30 | ≥ 30 | ≥ 10 | % Increase in Live Macrophage Cells ([1]; 50 uM): ≥20%; inhibition at 10 µM [1, 6]: ≥ 30%
CC(O)CC(O)CC(=O)SCCNC(=O)CCNC(=O)[C@H](O)C(C)(C)CO (stereo partly shown) [Compound 400] | ≥ 30 | – | ≥ 10 | inhibition at 50 µM ([1]; Homo sapiens, Macrophage, 50 uM, read-out: % decrease in Macrophage TNFα Secretion): ≥ 30%
CC(C)(CO)[C@@H](O)C(=O)NCCC(=O)NCCSC(=O)CC(=O)CCC(=O)O [Compound 2, 6-[(2-[3-[(2R)-2,4-dihydroxy-3,3-dimethylbutanamido]propanamido]ethyl)sulfanyl]-4,6-dioxohexanoic acid] | – | – | ≥ 10 | activation at 50 µM [4, 8]: ≥ 10%
CC(O)CC(O)CC(O)CC(=O)SCCNC(=O)CCNC(=O)[C@H](O)C(C)(C)CO (stereo partly shown) [Compound 401] | – | ≥ 30 | ≥ 10 | % decrease in Live Macrophage Cells ([1]; 50 uM): ≥20%
CC(=O)OCC(C)(C)[C@@H](O)C(=O)NCCC(=O)NCCSC(=O)CC(=O)CCC(=O)O [Compound 140, 6-[(2-[3-[(2R)-4-(acetyloxy)-2-hydroxy-3,3-dimethylbutanamido]propanamido]ethyl)sulfanyl]-4,6-dioxohexanoic acid] | – | – | ≥ 10 | activation at 50 µM [4, 9]: ≥ 10%
CC(=O)OCC(C)(C)[C@@H](OC(C)=O)C(=O)NCCC(=O)NCCSC(C)=O [Compound 1264, (1R)-3-(acetyloxy)-1-[(2-[[2-(acetylsulfanyl)ethyl]carbamoyl]ethyl)carbamoyl]-2,2-dimethylpropyl acetate] | – | – | ≥ 10 | % decrease in tPA [3]: ≥10%; inhibition at 10 µM ([3]; Homo sapiens, Epithelial cell, 24 h, read-out: % decrease in MMP-1): ≥ 10%
CCC(=O)CC(=O)SCCNC(=O)CCNC(=O)[C@H](O)C(C)(C)CO [Compound 382, (2R)-2,4-dihydroxy-3,3-dimethyl-N-[2-([2-[(3-oxopentanoyl)sulfanyl]ethyl]carbamoyl)ethyl]butanamide] | – | – | ≥ 10 | activation at 10 µM ([4]; assay condition D (1 mM glucose, 10% FBS), 10 μM): ≥ 10%
